Some results are limits rather than exact numbers.

The target in one experiment is T1, DNA topoisomerase 1 (Homo sapiens, UniProt P11387).
T1 sequence (P11387 whole entry): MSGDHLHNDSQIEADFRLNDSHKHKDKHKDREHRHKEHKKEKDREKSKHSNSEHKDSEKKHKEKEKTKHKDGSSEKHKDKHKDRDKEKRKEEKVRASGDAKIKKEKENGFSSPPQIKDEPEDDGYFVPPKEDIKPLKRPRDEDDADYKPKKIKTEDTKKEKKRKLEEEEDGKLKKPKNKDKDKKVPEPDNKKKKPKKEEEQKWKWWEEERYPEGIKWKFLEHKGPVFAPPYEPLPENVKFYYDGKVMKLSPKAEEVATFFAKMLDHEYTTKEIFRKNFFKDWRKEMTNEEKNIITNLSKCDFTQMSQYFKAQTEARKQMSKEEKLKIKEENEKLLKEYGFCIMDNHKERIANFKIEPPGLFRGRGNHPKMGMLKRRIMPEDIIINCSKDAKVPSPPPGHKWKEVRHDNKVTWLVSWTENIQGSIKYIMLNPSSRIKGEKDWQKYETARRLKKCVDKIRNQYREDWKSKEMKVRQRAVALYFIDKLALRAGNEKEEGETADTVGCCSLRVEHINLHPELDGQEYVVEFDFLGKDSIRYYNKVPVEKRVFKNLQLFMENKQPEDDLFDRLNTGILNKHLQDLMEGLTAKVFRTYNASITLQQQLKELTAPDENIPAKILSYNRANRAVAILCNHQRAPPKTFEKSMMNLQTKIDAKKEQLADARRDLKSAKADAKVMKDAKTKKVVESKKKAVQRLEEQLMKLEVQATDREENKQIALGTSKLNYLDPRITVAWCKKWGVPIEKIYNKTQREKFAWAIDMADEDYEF
The experiment in a line: Topoisomerase I Relaxation Assay. Conditions: pH 7.8; 37 °C. The protocol:
Supercoiled pHOT1 DNA (0.5 μg) was incubated with four units of human topoisomerase I in relaxation buffer (10mM Tris-HCl (pH 7.8), 1mM EDTA, 0.15M NaCl, 0.1% BSA, 0.1 spermidine, 5% glycerol), in the presence of varying concentrations of the test compounds. Reactions were carried out at 37 °Cfor 1 h and then terminated by the addition of sodium dodecyl sulfate (SDS) to 0.25% and proteinase K to 50 μg/ml. The reaction mixture was subjected to electrophoresis through a 0.8% agarose gel containing […] in TAE buffer ([…] and 1mM EDTA). The gels were stained with ethidium bromide and photographed under UV light. For the quantitative determination of topoisomerase concentration activity, photographic negatives were scanned and the area representing supercoiled DNA, migrating as a single band at the bottom of the gel was measured using UVI-KS4000i gel documentation and analysis system (SyngenBiotech, Sacramento, CA).

Experiment [1] has as its target DNA topoisomerase I (Homo sapiens). In words: Supercoiled pHOT1 DNA (0.5 μg) was incubated with four units of human topoisomerase I in relaxation buffer (10mM Tris-HCl (pH 7.8), 1mM EDTA, 0.15M NaCl, 0.1% BSA, 0.1 spermidine, 5% glycerol), in the presence of varying concentrations of the test compounds. Reactions were carried out at 37 °Cfor 1 h and then terminated by the addition o.

Take `COc1ccc(NC(=S)NNC(=O)C2CCNCC2)cc1` [DNA topoisomerase inhibitor, 4]: the IC50 (against DNA topoisomerase 1; in experiment [1]) was 250 µM each time.
Consider `O=C(NNC(=S)Nc1ccccc1)C1CCNCC1` [DNA topoisomerase inhibitor, 3], for which the IC50 (at DNA topoisomerase 1; in experiment [1]) was 250 µM throughout.
Consider `CCNC(=S)NNC(=O)C1CCNCC1` [DNA topoisomerase inhibitor, 8], for which the IC50 (against DNA topoisomerase 1; in experiment [1]) was greater than 350 µM throughout.
In the case of `Cc1nc[nH]c1C(=O)NNC(=S)NC(=O)c1ccccc1` [DNA topoisomerase inhibitor, 1], the IC50 was found to be 100 µM on DNA topoisomerase 1 and 50 µM in experiment [1].
Taken in the same sequence, the figures for `O=C(NC(=S)NNC(=O)c1cc2ccccc2[nH]1)c1ccccc1` [DNA topoisomerase inhibitor, 2] were 100 µM and 50 µM.
On to `O=C(NNC(=S)Nc1ccc(I)cc1)C1CCNCC1` [DNA topoisomerase inhibitor, 5], for which the 50% inhibitory concentration (IC50) (on DNA topoisomerase 1; in experiment [1]) was 250 µM each time.
In turn, `COc1cc([C@@H]2c3cc4c(cc3[C@@H](O[C@@H]3O[C@@H]5CO[C@@H](C)O[C@H]5[C@H](O)[C@H]3O)[C@H]3COC(=O)[C@H]23)OCO4)cc(OC)c1O` [4'-Demethylepipodophyllotoxin 9-(4,6-O-(R)-ethylidene-beta-D-glucopyranoside)] registered an IC50 on DNA topoisomerase 1 greater than 350 µM.
In the case of `CCc1ccc(NC(=S)NNC(=O)C2CCNCC2)cc1` [DNA topoisomerase inhibitor, 7], the IC50 (at DNA topoisomerase 1; in experiment [1]) was greater than 350 µM in each case.
In the case of `O=C(NNC(=S)Nc1ccc(Br)cc1)C1CCNCC1` [DNA topoisomerase inhibitor, 6], the IC50 (against DNA topoisomerase 1; in experiment [1]) was 250 µM each time.

Usually IC50 stands for the midpoint of a concentration-inhibition curve.
